The results in this text go back to PubChem BioAssay AID248 (DTP/NCI, 2004).

This test concerns L1210 leukemia ip in BDF1 mice, survival T/C. The test is described as follows: NCI In Vivo Anticancer Drug Screen. Data for tumor model L1210 Leukemia (intraperitoneal) in B6D2F1 (BDF1) mice. The note with it: endpoint: mean survival time, higher = longer survival. The procedure, abridged: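 Each compound was tested against a transplantable tumor grown in mice. The endpoint was survival, with treated animals benchmarked against vehicle controls as a simple ratio.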

Setting [1] is: dose: 100.0 mg/kg/injection, schedule: Q04DX003 (ip), vehicle: Klucel (hydroxypropylcellulose) (HPC).
Where [2] appears, read: dose: 200.0 mg/kg/injection, schedule: Q04DX003 (ip), vehicle: Klucel (hydroxypropylcellulose) (HPC).
[3] abbreviates: dose: 400.0 mg/kg/injection, schedule: Q04DX003 (ip), vehicle: Klucel (hydroxypropylcellulose) (HPC).
Setting [4] is: dose: 100.0 mg/kg/injection, schedule: Q04DX003 (ip), vehicle: saline with Tween-80.
The mark [5] stands for this setting: dose: 200.0 mg/kg/injection, schedule: Q04DX003 (ip), vehicle: saline with Tween-80.
Where [6] appears, read: dose: 400.0 mg/kg/injection, schedule: Q04DX003 (ip), vehicle: saline with Tween-80.
Where [7] appears, read: dose: 100.0 mg/kg/injection, schedule: Q01DX009 (ip), vehicle: saline with Tween-80.
The mark [8] stands for this setting: dose: 200.0 mg/kg/injection, schedule: Q01DX009 (ip), vehicle: saline with Tween-80.
Setting [9] is: dose: 400.0 mg/kg/injection, schedule: Q01DX009 (ip), vehicle: saline with Tween-80.
[10] abbreviates: dose: 100.0 mg/kg/injection, schedule: Q01DX009 (ip), vehicle: saline.
[11] abbreviates: dose: 200.0 mg/kg/injection, schedule: Q01DX009 (ip), vehicle: saline.
Where [12] appears, read: dose: 400.0 mg/kg/injection, schedule: Q01DX009 (ip), vehicle: saline.
[13] abbreviates: dose: 100.0 mg/kg/injection, schedule: Q04DX002 (ip), vehicle: Klucel (hydroxypropylcellulose) (HPC).
[14] abbreviates: dose: 200.0 mg/kg/injection, schedule: Q04DX002 (ip), vehicle: Klucel (hydroxypropylcellulose) (HPC).
Setting [15] is: dose: 100.0 mg/kg/injection, schedule: Q01DX009 (ip), vehicle: Klucel (hydroxypropylcellulose) (HPC).
Setting [16] is: dose: 200.0 mg/kg/injection, schedule: Q01DX009 (ip), vehicle: Klucel (hydroxypropylcellulose) (HPC).
Where [17] appears, read: dose: 400.0 mg/kg/injection, schedule: Q01DX009 (ip), vehicle: Klucel (hydroxypropylcellulose) (HPC).

The structures appear in SMILES notation. “And” between values parts separate entries of the source, which are not always exact repeats. Identical values can stand only once. Toxic doses and inconclusive results are not listed.

With `Cc1cc(C(=O)O)c2c([nH]1)c(C)cc1nc3ccccc3c12`, the T/C reads like this: (dose: 50.0 mg/kg/injection, schedule: Q01DX001 (ip), vehicle: carboxymethylcellulose (CMC)) 101 % of control; (dose: 100.0 mg/kg/injection, schedule: Q01DX001 (ip), vehicle: carboxymethylcellulose (CMC)) 101 % of control; (dose: 200.0 mg/kg/injection, schedule: Q01DX001 (ip), vehicle: carboxymethylcellulose (CMC)) 108 % of control; (dose: 400.0 mg/kg/injection, schedule: Q01DX001 (ip), vehicle: carboxymethylcellulose (CMC)) 95 % of control.
Take `CC(C)(C)OC(=O)C1(c2ccccc2)OC1c1ccccc1` (stereo not given): the T/C under setting [1] is 105 % of control, the T/C under setting [2] was 100 % of control and the T/C under setting [3] is 96 % of control.
Take `COC1(OC)CCP(=S)(c2ccccc2)CC1C#N` (stereo not given): the T/C is, setting by setting: under setting [4], 100 % of control; under setting [5], 101 % of control; under setting [6], 92 % of control.
Consider `Cc1ccc(S(=O)(=O)OCC2OC(n3cnc4c(=O)[nH]cnc43)C3OC(C)(C)OC23)cc1` (stereo not given), for which the T/C (dose: 100.0 mg/kg/injection, schedule: Q01DX005 (ip), vehicle: saline) was 103 % of control and the T/C (dose: 200.0 mg/kg/injection, schedule: Q01DX005 (ip), vehicle: saline) was 103 % of control.
For the compound `O=C(O)CSc1ccc(NC(=O)NC2CCCCC2)cc1`, the T/C under setting [7] was 96 % of control; the T/C (dose: 100.0 mg/kg/injection, schedule: Q04DX003 (ip), vehicle: saline sonified) is 114 % of control; the T/C under setting [8] was 91 % of control; the T/C (dose: 200.0 mg/kg/injection, schedule: Q04DX003 (ip), vehicle: saline sonified) was 89 % of control; the T/C under setting [9] is 88 % of control; the T/C (dose: 400.0 mg/kg/injection, schedule: Q04DX003 (ip), vehicle: saline sonified) is 96 % of control.
Turning to `CCCOC(=O)C1(N)CCCC1`, the T/C is 117 % of control (dose: 16.0 mg/kg/injection, schedule: Q01DX Z (ip), vehicle: carboxymethylcellulose (CMC)); 119 % of control (dose: 31.0 mg/kg/injection, schedule: Q01DX Z (ip), vehicle: carboxymethylcellulose (CMC)); 114 % of control (dose: 45.0 mg/kg/injection, schedule: Q01DX Z (ip), vehicle: saline); 98 % of control (dose: 50.0 mg/kg/injection, schedule: Q01DX001 (ip), vehicle: Klucel (hydroxypropylcellulose) (HPC)); 103 % of control (dose: 50.0 mg/kg/injection, schedule: Q04DX003 (ip), vehicle: Klucel (hydroxypropylcellulose) (HPC)); 120 % of control (dose: 62.0 mg/kg/injection, schedule: Q01DX Z (ip), vehicle: carboxymethylcellulose (CMC)). Also, the T/C reads like this: (dose: 100.0 mg/kg/injection, schedule: Q01DX001 (ip), vehicle: Klucel (hydroxypropylcellulose) (HPC)) 106 % of control; (dose: 100.0 mg/kg/injection, schedule: Q01DX Z (ip), vehicle: saline) 121 % of control; under setting [1], 117 % of control; (dose: 148.0 mg/kg/injection, schedule: Q01DX Z (ip), vehicle: saline) 160 % of control; (dose: 150.0 mg/kg/injection, schedule: Q01DX Z (ip), vehicle: saline) 114 % of control; (dose: 200.0 mg/kg/injection, schedule: Q01DX001 (ip), vehicle: Klucel (hydroxypropylcellulose) (HPC)) 117 % of control and 118 % of control. Also, the T/C reads like this: (dose: 336.0 mg/kg/injection, schedule: Q01DX Z (ip), vehicle: saline) 110 % of control; under setting [3], 121 % of control; (dose: 500.0 mg/kg/injection, schedule: Q01DX Z (ip), vehicle: carboxymethylcellulose (CMC)) 89 % of control; (dose: 504.0 mg/kg/injection, schedule: Q01DX Z (ip), vehicle: saline) 116 % of control.
In the case of `COc1ccc(CNCCNCc2ccc(OC)c(OC)c2)cc1OC`, the T/C reads like this: under setting [7], 97 % of control; under setting [4], 100 % of control; under setting [8], 102 % of control; under setting [5], 93 % of control; under setting [9], 106 % of control; under setting [6], 105 % of control.
For the compound `CCOC(=O)N1c2ccccc2C=CC1C#N` (stereo not given), the T/C (dose: 44.0 mg/kg/injection, schedule: Q04DX003 (ip), vehicle: saline) is 108 % of control; the T/C (dose: 66.0 mg/kg/injection, schedule: Q04DX003 (ip), vehicle: saline) was 105 % of control; the T/C under setting [10] was 93 % of control; the T/C (dose: 100.0 mg/kg/injection, schedule: Q04DX003 (ip), vehicle: saline) was 94 % of control and 96 % of control; the T/C under setting [11] is 100 % of control; the T/C (dose: 200.0 mg/kg/injection, schedule: Q04DX003 (ip), vehicle: saline) was 101 % of control and 102 % of control. Further, the T/C runs as follows: under setting [12], 95 % of control; (dose: 400.0 mg/kg/injection, schedule: Q04DX003 (ip), vehicle: saline) 102 % of control.
Regarding `O=C(O)C1(NC2CCCCC2)CCCCC1`, the T/C is 104 % of control (dose: 5.0 mg/kg/injection, schedule: Q01DX Z (ip), vehicle: methylcellulose (MC)); 114 % of control (dose: 10.0 mg/kg/injection, schedule: Q01DX Z (ip), vehicle: methylcellulose (MC)); 99 % of control (dose: 20.0 mg/kg/injection, schedule: Q01DX Z (ip), vehicle: methylcellulose (MC)); 100 % of control (dose: 40.0 mg/kg/injection, schedule: Q01DX Z (ip), vehicle: methylcellulose (MC)); 99 % of control (dose: 80.0 mg/kg/injection, schedule: Q01DX Z (ip), vehicle: methylcellulose (MC)).
Turning to `COc1ccc(OC)c2[nH]c(-c3ccccc3)cc12`, the T/C reads like this: under setting [13], 96 % of control; under setting [14], 105 % of control; (dose: 400.0 mg/kg/injection, schedule: Q04DX002 (ip), vehicle: Klucel (hydroxypropylcellulose) (HPC)) 93 % of control.
Turning to `CSC(=S)N(C)C`, the T/C is 90 % of control (dose: 25.0 mg/kg/injection, schedule: Q01DX009 (ip), vehicle: Klucel (hydroxypropylcellulose) (HPC)); 108 % of control (dose: 50.0 mg/kg/injection, schedule: Q01DX009 (ip), vehicle: Klucel (hydroxypropylcellulose) (HPC)); 97 % of control and 102 % of control under setting [15]; 100 % of control under setting [1]; 93 % of control under setting [2].
`COC(=O)c1ccccc1NC(=O)c1c(-c2ccccc2Cl)noc1C`: the T/C under setting [15] was 99 % of control, the T/C under setting [16] is 94 % of control and the T/C under setting [17] is 98 % of control.
For `O=C(Nc1ccc(Cl)cc1Cl)P(=O)(O)c1ccccc1`, the T/C reads like this: under setting [15], 92 % of control; under setting [13], 101 % of control; under setting [16], 103 % of control; under setting [14], 90 % of control; under setting [17], 92 % of control.
For `O=C(O)C1C2CC3OC(=O)C1C3C2O` (stereo not given), the T/C by setting is: under setting [10], 103 % of control; under setting [4], 96 % of control; under setting [11], 94 % of control; under setting [5], 86 % of control; under setting [12], 100 % of control; under setting [6], 86 % of control.
For `Nc1ncc(CSCc2ccccc2)c(-c2ccccc2)n1`, the T/C by setting is: (dose: 100.0 mg/kg/injection, schedule: Q04DX002 (ip), vehicle: saline with Tween-80) 100 % of control; (dose: 200.0 mg/kg/injection, schedule: Q04DX002 (ip), vehicle: saline with Tween-80) 96 % of control; (dose: 400.0 mg/kg/injection, schedule: Q04DX002 (ip), vehicle: saline with Tween-80) 96 % of control.
Turning to `Oc1cccc2ccc3cccc(O)c3c12`, the T/C (dose: 100.0 mg/kg/injection, schedule: Q04DX003 (ip), vehicle: alcohol) is 100 % of control and the T/C (dose: 200.0 mg/kg/injection, schedule: Q04DX003 (ip), vehicle: alcohol) was 93 % of control.
